Measured values published in patent publication US10000483B2, “Bone marrow on X chromosome kinase (BMX) inhibitors and uses thereof” (Dana-Farber Cancer Institute, Inc., priority 2012, dated 2018).
Several values for one entry are separate records, joined by “and”; a condition that tells them apart may be missing. Identical values can stand only once.

What was measured:
BTK = BTK (Homo sapiens (Human), UniProt Q06187); assay: Invitrogen Select Screening in vitro kinase assay; assay type: biochemical
OCI-Ly3 cells = assay: Cell proliferation analysis for WM and lymphoma cell lines (CellTiter-Glo); assay type: cell-based; conditions: Homo sapiens, 72 hours
Ramos cells = assay: as above; assay type: cell-based; conditions: Homo sapiens, 72 hours
MWCL-1 cells = assay: as above; assay type: cell-based; conditions: 72 hours
OCI-Ly19 cells = assay: as above; assay type: cell-based; conditions: Homo sapiens, 72 hours
BCWM.1 cells = assay: as above; assay type: cell-based; conditions: BCWM1; 72 hours
BMX [1] = molecular target: T1, BMX (Homo sapiens (Human), UniProt P51813); assay: Invitrogen Select Screening in vitro kinase assay; assay type: biochemical
mTOR = mTOR (Homo sapiens (Human), UniProt P42345); assay: Invitrogen Select Screening in vitro kinase assay; assay type: biochemical
Excerpt: (§1) The in vitro activity of compounds of Formula (I) and (II) in inhibiting BMX and other kinases were obtained using an Invitrogen Select Screening assay as known in the art. The IC50 values determined from this assay are shown below.

BLK = BLK (Homo sapiens (Human), UniProt P51451); assay: Invitrogen Select Screening in vitro kinase assay; assay type: biochemical
Excerpt: as §1

RV-1 cells = assay: Anti-proliferation assay for prostate cancer cells (CellTiter-Glo); assay type: cell-based
Method: Data were normalized to control group (DMSO) and represented by the mean of at least two independent measurement with standard error <20%. GI50 were calculated using Prism 5.0 (GraphPad Software, San Diego, Calif.).

wild-type (WT) BMX = wild-type (WT) BMX (Homo sapiens (Human), UniProt P51813); assay: IP kinase assay, BMX autophosphorylation; assay type: biochemical; conditions: FIG. 15
Excerpt: FIG. 15 confirms that the potency of the BMX inhibitors is due to covalent binding to cysteine 496.

BMX [2] = molecular target: T1, BMX; assay: BMX protein levels in RV-1 cells; assay type: cell-based; conditions: 72 h treatment, 5 μM
Excerpt: Moreover, the depletion could be rescued upon stable overexpression of the C496S mutant BMX.

JAK3 = JAK3 (Homo sapiens (Human), UniProt P52333); assay: Invitrogen Select Screening in vitro kinase assay; assay type: biochemical
PRCIWM-1 cells = assay: Cell proliferation analysis for WM and lymphoma cell lines (CellTiter-Glo); assay type: cell-based; conditions: 72 hours
Method: CellTiter-Glo® Luminescent cell viability assay (Promega) was used to assess cell survival following treatment with an inhibitor compound of Formula (I) or (II) (e.g., 1-14). Various cell lines were used including Waldenström's macroglobulinemia (WM) cell lines (BCWM.1, MWCL-1, RPCI-WM1) and B-cell lymphoma cell lines (OCI-Ly3, Ramos, OCI-Ly19). Cells were seeded into 384 well plates with the EL406 Combination Washer Dispenser (BioTek Instruments, Inc.) and inhibitor compounds were injected into the cells culture media with the JANUS Automated Workstation (PerkinElmer Inc.). Cells were treated with a series diluted inhibitor compounds (20˜0.04 μM) for 72 hours at 37° C. Luminescent measurement is performed using the 2104 Envision® Multilabel Reader (PerkinElmer Inc.).

TEC = TEC (Homo sapiens (Human), UniProt P42680); assay: Invitrogen Select Screening in vitro kinase assay; assay type: biochemical
Excerpt: as §1

BTK, sequence (Q06187 whole entry): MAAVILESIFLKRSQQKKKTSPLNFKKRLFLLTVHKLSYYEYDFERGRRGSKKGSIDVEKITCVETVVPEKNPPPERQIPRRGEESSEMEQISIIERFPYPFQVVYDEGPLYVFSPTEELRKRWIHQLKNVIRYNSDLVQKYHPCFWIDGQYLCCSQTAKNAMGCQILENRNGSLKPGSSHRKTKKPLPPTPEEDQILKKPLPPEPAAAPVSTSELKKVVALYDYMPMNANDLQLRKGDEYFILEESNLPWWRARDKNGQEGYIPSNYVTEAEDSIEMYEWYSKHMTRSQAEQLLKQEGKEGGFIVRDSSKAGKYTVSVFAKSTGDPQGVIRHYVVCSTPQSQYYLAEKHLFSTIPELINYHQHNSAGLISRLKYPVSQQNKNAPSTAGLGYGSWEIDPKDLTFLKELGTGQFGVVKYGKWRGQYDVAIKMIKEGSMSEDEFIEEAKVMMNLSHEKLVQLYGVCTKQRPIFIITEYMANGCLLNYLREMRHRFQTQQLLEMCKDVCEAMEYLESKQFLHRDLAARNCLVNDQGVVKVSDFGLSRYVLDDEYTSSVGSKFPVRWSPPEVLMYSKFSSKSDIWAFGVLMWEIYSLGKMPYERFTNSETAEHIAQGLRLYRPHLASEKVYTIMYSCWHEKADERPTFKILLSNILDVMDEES
T1 sequence (P51813 whole entry): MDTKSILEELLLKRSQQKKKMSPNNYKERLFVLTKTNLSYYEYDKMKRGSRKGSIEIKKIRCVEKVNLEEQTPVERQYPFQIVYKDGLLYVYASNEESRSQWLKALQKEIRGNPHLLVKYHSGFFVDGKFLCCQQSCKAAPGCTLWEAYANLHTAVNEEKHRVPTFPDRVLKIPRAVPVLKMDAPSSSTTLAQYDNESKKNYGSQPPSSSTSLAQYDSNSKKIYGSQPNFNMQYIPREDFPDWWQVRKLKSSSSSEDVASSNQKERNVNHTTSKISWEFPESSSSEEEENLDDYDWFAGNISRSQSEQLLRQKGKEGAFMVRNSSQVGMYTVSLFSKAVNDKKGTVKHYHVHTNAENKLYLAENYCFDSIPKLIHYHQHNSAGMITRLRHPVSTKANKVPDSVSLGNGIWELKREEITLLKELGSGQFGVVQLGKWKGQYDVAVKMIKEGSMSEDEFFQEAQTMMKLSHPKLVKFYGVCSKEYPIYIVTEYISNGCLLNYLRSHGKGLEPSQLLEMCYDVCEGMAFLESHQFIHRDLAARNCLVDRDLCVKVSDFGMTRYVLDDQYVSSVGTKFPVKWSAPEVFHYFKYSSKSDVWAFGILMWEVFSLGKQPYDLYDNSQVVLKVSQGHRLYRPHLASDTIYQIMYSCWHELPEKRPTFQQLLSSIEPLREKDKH
BLK, sequence (P51451 whole entry): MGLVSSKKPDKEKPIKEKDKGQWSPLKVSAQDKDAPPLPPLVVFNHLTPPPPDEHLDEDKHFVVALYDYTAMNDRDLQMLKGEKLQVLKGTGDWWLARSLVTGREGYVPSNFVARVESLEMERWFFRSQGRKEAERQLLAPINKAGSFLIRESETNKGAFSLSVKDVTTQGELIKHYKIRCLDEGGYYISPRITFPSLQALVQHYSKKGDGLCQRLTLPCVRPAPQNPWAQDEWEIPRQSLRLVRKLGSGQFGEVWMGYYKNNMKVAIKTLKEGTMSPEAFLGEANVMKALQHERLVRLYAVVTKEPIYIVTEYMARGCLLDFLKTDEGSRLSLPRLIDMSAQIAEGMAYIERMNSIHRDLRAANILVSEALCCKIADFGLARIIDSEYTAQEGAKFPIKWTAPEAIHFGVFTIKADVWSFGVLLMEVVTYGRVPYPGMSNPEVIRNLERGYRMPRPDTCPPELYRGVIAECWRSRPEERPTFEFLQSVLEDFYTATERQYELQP
JAK3, sequence (P52333 whole entry): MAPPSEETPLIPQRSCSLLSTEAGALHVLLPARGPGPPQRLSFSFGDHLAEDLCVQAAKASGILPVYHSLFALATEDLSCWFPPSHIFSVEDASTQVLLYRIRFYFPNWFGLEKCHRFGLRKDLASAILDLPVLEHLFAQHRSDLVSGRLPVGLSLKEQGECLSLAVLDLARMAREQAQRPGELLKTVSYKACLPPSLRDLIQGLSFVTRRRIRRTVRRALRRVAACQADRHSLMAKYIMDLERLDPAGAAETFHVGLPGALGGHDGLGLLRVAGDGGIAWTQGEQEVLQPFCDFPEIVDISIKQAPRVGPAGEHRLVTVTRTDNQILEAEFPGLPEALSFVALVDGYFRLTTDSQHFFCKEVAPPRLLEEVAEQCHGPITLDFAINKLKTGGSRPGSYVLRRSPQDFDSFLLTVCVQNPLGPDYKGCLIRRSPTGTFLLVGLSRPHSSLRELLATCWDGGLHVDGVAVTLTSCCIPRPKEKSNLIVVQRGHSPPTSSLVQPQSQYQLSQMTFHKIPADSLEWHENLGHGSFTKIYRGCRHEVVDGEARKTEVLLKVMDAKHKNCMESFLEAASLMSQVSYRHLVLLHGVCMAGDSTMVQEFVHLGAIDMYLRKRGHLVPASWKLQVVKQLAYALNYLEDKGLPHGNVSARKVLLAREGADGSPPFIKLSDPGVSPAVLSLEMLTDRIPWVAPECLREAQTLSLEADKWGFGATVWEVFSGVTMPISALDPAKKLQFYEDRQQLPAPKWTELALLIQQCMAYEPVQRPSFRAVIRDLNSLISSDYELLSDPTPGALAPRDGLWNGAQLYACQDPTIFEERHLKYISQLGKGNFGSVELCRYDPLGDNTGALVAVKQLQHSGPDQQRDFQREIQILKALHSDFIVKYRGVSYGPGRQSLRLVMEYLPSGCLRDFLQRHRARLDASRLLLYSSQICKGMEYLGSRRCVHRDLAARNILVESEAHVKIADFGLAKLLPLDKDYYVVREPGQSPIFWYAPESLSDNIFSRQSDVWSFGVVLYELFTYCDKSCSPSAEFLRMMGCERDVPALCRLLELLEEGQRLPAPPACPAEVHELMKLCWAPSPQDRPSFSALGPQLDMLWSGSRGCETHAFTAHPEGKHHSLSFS
TEC, sequence (P42680 whole entry): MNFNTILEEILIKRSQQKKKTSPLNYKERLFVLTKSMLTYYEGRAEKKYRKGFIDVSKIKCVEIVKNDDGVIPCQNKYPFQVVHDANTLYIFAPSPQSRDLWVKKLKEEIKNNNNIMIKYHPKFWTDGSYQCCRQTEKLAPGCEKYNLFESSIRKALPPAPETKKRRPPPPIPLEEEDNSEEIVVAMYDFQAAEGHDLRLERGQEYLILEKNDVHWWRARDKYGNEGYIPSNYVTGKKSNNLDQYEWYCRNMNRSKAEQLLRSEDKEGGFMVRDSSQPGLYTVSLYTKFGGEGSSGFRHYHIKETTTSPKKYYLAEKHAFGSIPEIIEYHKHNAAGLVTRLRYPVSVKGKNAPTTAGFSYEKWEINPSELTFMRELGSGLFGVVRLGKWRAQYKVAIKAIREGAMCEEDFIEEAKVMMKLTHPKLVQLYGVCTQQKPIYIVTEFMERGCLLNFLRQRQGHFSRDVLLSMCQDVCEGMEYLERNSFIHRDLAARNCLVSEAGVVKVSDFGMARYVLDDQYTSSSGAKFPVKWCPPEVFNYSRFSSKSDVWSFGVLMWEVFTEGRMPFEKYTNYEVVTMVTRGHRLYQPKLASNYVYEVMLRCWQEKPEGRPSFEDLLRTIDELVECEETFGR
wild-type (WT) BMX, sequence (P51813 whole entry): as the sequence (P51813 whole entry) above

| SMILES | IC50 (BTK) [nM] | EC50 (OCI-Ly3 cells) [nM] | EC50 (Ramos cells) [nM] | EC50 (MWCL-1 cells) [nM] | EC50 (OCI-Ly19 cells) [nM] | EC50 (BCWM.1 cells) [nM] | IC50 (BMX [1]) | IC50 (mTOR) [nM] | other results |
| --- | --- | --- | --- | --- | --- | --- | --- | --- | --- |
| C=CC(=O)Nc1cc(-n2c(=O)ccc3cnc4ccc(-c5ccc(C(N)=O)cc5)cc4c32)ccc1C [I-15] | 79 | – | – | – | – | – | – | – | – |
| C=CC(=O)Nc1cc(-n2c(=O)ccc3cnc4ccc(-c5ccc6[nH]ncc6c5)cc4c32)ccc1C [I-22] | – | 180 | 91 | 117 | 51 | 203 | – | – | – |
| C=CC(=O)Nc1cc(-n2c(=O)ccc3cnc4ccc(-c5ccccc5)cc4c32)ccc1C [I-7] | 25 | 380 | 310 | 950 | 10 | 180 | 15.9 nM and 16 nM | 210 | IC50 (BLK): 250 nM |
| C=CC(=O)Nc1cc(-n2c(=O)ccc3cnc4ccc(-c5ccc6occc6c5)cc4c32)ccc1C [I-20] | – | 1100 | 602 | 798 | > 20000 | 1020 | – | – | – |
| C=CC(=O)N1CCc2ccc(-n3c(=O)ccc4cnc5ccc(-c6ccc(S(=O)(=O)NC(C)(C)C)cc6)cc5c43)cc21 [I-11] | 11 | – | – | – | – | – | 18.1 nM and 18 nM | 536 | – |
| CCC(=O)Nc1cc(-n2c(=O)ccc3cnc4ccc(-c5ccc(NS(C)(=O)=O)cc5)cc4c32)ccc1C [I-14R] | – | – | – | – | – | – | – | – | concentration with antiproliferative effects against RV-1 cells (RV-1 cells): ≥ 10 µM; concentration inhibiting autophosphorylation of wild-type BMX (wild-type (WT) BMX): > 10,000 nM; BMX protein levels in RV-1 cells (BMX [2]): not |
| C=CC(=O)Nc1cc(-n2c(=O)ccc3cnc4ccc(-c5ccc(NC(=O)NC)cc5)cc4c32)ccc1C [I-8] | 66 | – | – | – | – | – | 40.6 nM | – | IC50 (JAK3): 4170 nM |
| C=CC(=O)N1CCc2ccc(-n3c(=O)ccc4cnc5ccc(-c6ccc(N7CCN(C)CC7)cc6)cc5c43)cc21 [I-17] | 155 | 1120 | 420 | 1780 | 80 | 490 | 399 nM | 516 | IC50 (JAK3): 5580 nM |
| C=CC(=O)Nc1cc(-n2c(=O)ccc3cnc4ccc(Nc5ccc6cccnc6c5)cc4c32)ccc1C [I-28] | – | 3590 | 3430 | 7490 | 1050 | 4440 | – | – | EC50 (PRCIWM-1 cells): 691 nM |
| C=CC(=O)Nc1cc(-n2c(=O)ccc3cnc4ccc(-c5ccc(COc6cccc(C(F)(F)F)c6)cc5)cc4c32)ccc1C [I-13] | 37 | – | – | – | – | – | 18.1 nM and 28 nM | – | – |
| C=CC(=O)N1CCc2ccc(-n3c(=O)ccc4cnc5ccc(-c6ccc(COc7cccc(C(F)(F)F)c7)cc6)cc5c43)cc21 [I-10] | 1060 | 3660 | 3770 | 5750 | 290 | 2120 | > 10000 nM | – | – |
| C=CC(=O)Nc1cc(-n2c(=O)ccc3cnc4ccc(Nc5ccc6cnccc6c5)cc4c32)ccc1C [I-27] | – | 2590 | 6280 | 9150 | 374 | 1350 | – | – | EC50 (PRCIWM-1 cells): 345 nM |
| C=CC(=O)Nc1cc(-n2c(=O)ccc3cnc4ccc(Nc5ccc6ncccc6c5)cc4c32)ccc1C [I-29] | – | 3080 | 2570 | 7290 | 390 | 2200 | – | – | EC50 (PRCIWM-1 cells): 528 nM |
| C=CC(=O)Nc1cc(-n2c(=O)ccc3cnc4ccc(/C=C/c5ccccc5)cc4c32)ccc1C [I-16] | 105 | 1120 | 420 | 1780 | 80 | 490 | 27.8 nM and 28 nM | – | – |
| C=CC(=O)Nc1cc(-n2c(=O)ccc3cnc4ccc(-c5ccc6ccncc6c5)cc4c32)ccc1C [I-21] | – | 109 | 57 | 56 | 90 | 93 | – | – | – |
| C=CC(=O)Nc1cc(-n2c(=O)ccc3cnc4ccc(Nc5ccc6ccncc6c5)cc4c32)ccc1C [I-26] | – | 3340 | 3830 | 6820 | 659 | 3580 | – | – | EC50 (PRCIWM-1 cells): 663 nM |
| C=CC(=O)Nc1cc(-n2c(=O)ccc3cnc4ccc(-c5ccc6c(c5)OCO6)cc4c32)ccc1C [I-23] | – | 1170 | 653 | 610 | 19 | 849 | – | – | – |
| C=CC(=O)Nc1cc(-n2c(=O)ccc3cnc4ccc(-c5ccc6ocnc6c5)cc4c32)ccc1C [I-24] | – | 516 | 355 | 284 | 24 | 345 | – | – | – |
| C=CC(=O)N1CCc2ccc(-n3c(=O)ccc4cnc5ccc(-c6ccc(C(=O)NC)cc6F)cc5c43)cc21 [I-9] | 54 | – | – | – | – | – | – | – | – |
| C=CC(=O)Nc1cc(-n2c(=O)ccc3cnc4ccc(-c5ccc6c(c5)OCCO6)cc4c32)ccc1C [I-18] | 16 | – | – | – | – | – | 13.3 nM and 13 nM | 642 | – |

Now from value to compound, other results behind:

| IC50 (BTK) [nM] | EC50 (OCI-Ly3 cells) [nM] | EC50 (Ramos cells) [nM] | EC50 (MWCL-1 cells) [nM] | EC50 (OCI-Ly19 cells) [nM] | EC50 (BCWM.1 cells) [nM] | IC50 (BMX [1]) | IC50 (mTOR) [nM] | SMILES | other results |
| --- | --- | --- | --- | --- | --- | --- | --- | --- | --- |
| 14 | – | – | – | – | – | 8.16 nM and 8 nM | 173 | C=CC(=O)Nc1cc(-n2c(=O)ccc3cnc4ccc(-c5cnn(C)c5)cc4c32)ccc1C [II-3] | – |
| 18 | – | – | – | – | – | 10.5 nM and 11 nM | 41 | C=CC(=O)Nc1cccc(-n2c(=O)ccc3cnc4ccc(-c5cn[nH]c5)cc4c32)c1 [II-8] | – |
| 16 | 408 | 872 | 1550 | 454 | 643 | 12.9 nM and 13 nM | 17 | C=CC(=O)Nc1cc(-n2c(=O)ccc3cnc4ccc(-c5ccc(N)nc5)cc4c32)ccc1C [II-5] | EC50 (PRCIWM-1 cells): 86 nM |
| 6 | 1670 | 1350 | 2470 | 100 | 770 | 13.3 nM and 13 nM | 98 | C=CC(=O)N1CCc2ccc(-n3c(=O)ccc4cnc5ccc(-c6ccc(N)nc6)cc5c43)cc21 [II-13] | IC50 (BLK): 300 nM; IC50 (TEC): 27 nM; IC50 (JAK3): 5640 nM |
| 17 | 480 | 280 | 2160 | 70 | 410 | 12.1 nM and 12 nM | 4790 | C=CC(=O)Nc1cc(-n2c(=O)ccc3cnc4ccc(-c5ccoc5)cc4c32)ccc1C [II-10] | IC50 (JAK3): 492 nM |
| 12 | 500 | 360 | 650 | 160 | 320 | 8.75 nM and 9 nM | 209 | C=CC(=O)N1CCc2ccc(-n3c(=O)ccc4cnc5ccc(-c6cn[nH]c6)cc5c43)cc21 [II-14] | IC50 (BLK): 247 nM; IC50 (TEC): 57 nM; IC50 (JAK3): 2150 nM |
| 337 | – | – | – | – | – | – | – | C=CC(=O)N1CCc2ccc(-n3c(=O)ccc4cnc5ccc(-c6cnc(N)cc6C(F)(F)F)cc5c43)cc21 [II-15] | – |
| 19 | – | – | – | – | – | 15.7 nM and 16 nM | 19 | C=CC(=O)Nc1cccc(-n2c(=O)ccc3cnc4ccc(-c5ccc(N)nc5)cc4c32)c1 [II-7] | – |
| 7 | – | – | – | – | – | 5.62 nM and 6 nM | 59 | C=CC(=O)N1CCc2ccc(-n3c(=O)ccc4cnc5ccc(-c6cnc7ccccc7c6)cc5c43)cc21 [II-12] | – |
| 25 | – | – | – | – | – | 18.5 nM and 19 nM | 32 | C=CC(=O)Nc1cc(-n2c(=O)ccc3cnc4ccc(-c5cnc6ccccc6c5)cc4c32)ccc1C [II-16] | – |
| 115 | 240 | 200 | 670 | 90 | 190 | 66.1 nM and 66 nM | 1 | C=CC(=O)Nc1cc(-n2c(=O)ccc3cnc4ccc(-c5cccnc5)cc4c32)ccc1C [II-11] | IC50 (BLK): 1950 nM; IC50 (JAK3): 1520 nM |
| 39 | – | – | – | – | – | 19.7 nM and 20 nM | 369 | C=CC(=O)Nc1cc(-n2c(=O)ccc3cnc4ccc(-c5ccsc5)cc4c32)ccc1C [II-9] | – |
| – | 408 | 872 | 1550 | 454 | 643 | – | – | C=CC(=O)Nc1cc(-n2c(=O)ccc3cnc4ccc(-c5cnn(S(=O)(=O)c6ccccc6)c5)cc4c32)ccc1C [II-23] | EC50 (PRCIWM-1 cells): 86 nM |
